In patent US20130210156A1, “Uniform, Functionalized, Cross-Linked Nanostructures for Monitoring pH” (priority 2010, published 2013):

Key:
[1] = pH-responsive UV-Vis and fluorescence emission of MCNs, SCKs and small molecule cross-linkers; assay type: physicochemical; settings: small molecules in buffer at the surveyed pH values (5.8 to 8.6)
Method: The UV-vis absorption spectra of MCNs were collected at room temperature using a Varian Cary 100 Bio UV-visible spectrophotometer and plastic cuvettes with 10 mm of light path. For each MCN absorption spectroscopy measurement, the corresponding buffer solution (5 mM with 5 mM of NaCl) outside the dialysis tubing was used as control.
The fluorescence spectra of MCNs were obtained at room temperature using a Varian Cary Eclipse fluorescence spectrophotometer. All fluorescence spectra from MCN solutions were measured at optical densities at the excitation wavelength. If not specially mentioned otherwise, an excitation wavelength of the observed maximum absorption peak was used. Each fluorescence spectrum was normalized with respect to the absorbed light intensity at the excitation wavelength.
To a solution of PEO45-b-PNAS105-b-PS45 MCMs (30.0 mg of block copolymer precursor, 127 μmol of NAS residues) in 60.0 mL of DMF/H2O (v:v=1:1) at room temperature, was added dropwise over 10 min, a solution of cross-linker 2 or 3 of FIG. 24 (12.7 μmol for nominal 20% of cross-linking and 31.8 μmol for nominal 50% of cross-linking, respectively) in nano-pure H2O. The reaction mixture was allowed to stir for 48 h at room temperature in the absence of light. […]

[2] = Fluorescence emission of photonic SCKs and cross-linkers as a function of solution pH; assay type: physicochemical
Method: The resulting micelle solution 2 was incubated with 6.25 mol % or 12.5 mol % of the diamino-terminated pyrazine, relative to the acrylic acid residues, with the addition of EDCI, to afford SCK 3 or 4 having different amounts of fluorophores incorporated into the shells and, therefore, different degrees of cross-linking. The reaction mixture solutions were dialyzed against nanopure water for […] to remove the urea by-products and any non-attached pyrazine fluorophores. The SCK dimensions were then measured by atomic force microscopy (AFM) and transmission electron microscopy (TEM). […] Dialysis of the SCK solutions against nanopure water (ca. pH 7) for 3 days and then partitioning into six vials, each containing 5 mL of 5 mM PBS at pH 4.5, 6.1, 8.0, 9.5, or 11.0, placed the SCKs into different pH environments for analysis of the effects on the SCK hydrodynamic diameters and on the fluorophore photophysical properties.
Covalent cross-linking between the pyrazine units and the PAA shells, thereby, affords photonic SCKs for potential pH sensing. Covalent cross-linking between pyrazine and PAA shells constitutes photonic SCKs for potential biomedical applications. We expected to observe the photophysical consequences of the deprotonated PAA shell from pH 4.5 to 9.5 and those of the PpHS core from pH 9.5 to 11. In order to test our hypothesis, UV-vis and fluorescence measurements were collected on the resulting SCK solutions over the pH range of 4.5 to 11.0 to determine the pyrazine concentration, and then normalize the concentration relative to the fluorescence intensity values (See, FIG. 8). […] To observe the photophysical properties of the photonic SCKs, the data for the pyrazines within the SCK shell layers were compared between the two SCKs having different degrees of pyrazine loading and also against the pyrazine cross-linker associated physically with PAA and as a small molecule in buffered solutions.
To a 50 mL RB flask equipped with a magnetic stir bar was added a solution of micelles in nanopure H2O (15.0 mL, 0.016 mmol of carboxylic acid residues). To this solution, was added a solution of 3,6-diamino-N^2,N^5-bis(2-aminoethyl)pyrazine-2,5-dicarboxamide (0.397 mg, 1.12 μmol (6.25 mol % relative to the acrylic acid residues) for 12.5% cross-linking extent; or 0.794 mg, 2.24 μmol (12.5 mol % relative to the acrylic acid residues) for 25% cross-linking extent) in 1 mL nanopure H2O. The reaction mixture was allowed to stir for 2 h at room temperature. To this solution was added, dropwise via a syringe pump over 1 h, a solution of 1-[3′-(dimethylamino)propyl]-3-ethylcarbodiimide methiodide (EDCI, 0.849 mg, 2.86 μmol for 12.5% cross-linking extent; or 1.70 mg, 5.72 μmol for 25% cross-linking extent) in nanopure H2O (1.0 mL) and the reaction mixture was further stirred for 16 h at room temperature. Finally, the reaction mixture was transferred to pre-soaked dialysis tubing (MWCO ca. 3,500 Da) and dialyzed against nanopure water for 3 d to remove the small molecule starting materials and by-products, and afford aqueous solutions of SCK 3 and 4. SCK solutions for DLS, UV-vis, and fluorescence studies were further partitioned into six vials each containing 5 mM PBS (with 5 mM NaCl) at pH values of 4.5, 6.1, 8.0, 9.5, and 11.
Preparation of shell cross-linked nanoparticles (SCK) from micelles: Micelle solution pH was adjusted between 5 and 6. An electronic pipette was used to add 6.25 mol % or 12.5 mol % of diamine-terminated cross-linker (from stock solution with concentration 2.392 mg/mL or 6.2957 mg/mL) to the micelle solution and let stir for 3 hrs. To this reaction mixture was added dropwise, via a metering pump, a solution of 1-[3-(dimethylamino)propyl]-3-ethylcarbodiimide methiodide dissolved in nanopure water (12.5 mol % or 25.0 mol %). […]

[3] = excited between 488 nm and 530 nm; cited from earlier work

Cl.Cl.NCCCOCCOCCOCCCNC(=O)c1nc(N)c(C(=O)NCCCOCCOCCOCCCN)nc1N [cross-linker 3]
UV-Vis absorbance and fluorescence emission spectra variation [1]: no apparent UV-Vis absorbance and fluorescence emission spectra variation

Cl.Cl.NCCNC(=O)c1nc(N)c(C(=O)NCCN)nc1N [Photonic Cross-Linker Example 2, 3,6-diamino-N^2,N^5-bis(2-aminoethyl)pyrazine-2,5-dicarboxamide dihydrochloride]
change in fluorescence ([2]; as a function of increasing pH): less than 10%
Normalized percent increase in fluorescence ([2]; solution pH 4.5): 100%
Normalized percent increase in fluorescence ([2]; solution pH 6.1): 100%
Normalized percent increase in fluorescence ([2]; solution pH 8.0): 100%
Normalized percent increase in fluorescence ([2]; solution pH 9.5): 110%
Normalized percent increase in fluorescence ([2]; solution pH 11.0): 100%

Cl.Cl.NCCCOCCOCCOCCCNC(=O)c1nc(N)c(C(=O)NCCCOCCOCCOCCCN)nc1N [Photonic Cross-Linker Example 3, 3,6-diamino-N^2,N^5-bis(3-(2-(2-(3-aminopropoxy)ethoxy)ethoxy)propyl)pyrazine-2,5-dicarboxamide dihydrochloride]
decrease in fluorescence ([2]; as a function of increasing pH): ca. 30%

Cl.Cl.NCCNC(=O)c1nc(N)c(C(=O)NCCN)nc1N [cross-linker 2]
UV-Vis absorbance and fluorescence emission spectra variation [1]: no apparent UV-Vis absorbance and fluorescence emission spectra variation

carboxyseminaphthofluorescein [cSNARF®-1]
I580/I640 ratio [3]: greater than thirty
